From patent US20210070748A1, “INHIBITORS OF BRUTONS TYROSINE KINASE” (Pharmacyclics LLC, priority 2015, published 2021)

What was measured:
Assay type in all cases: biochemical
[1] = biological target: EGFR (Homo sapiens, UniProt P00533); assay: Inhibition of a panel of kinases, in vitro HotSpot kinase assay: EGFR; details: D-compounds panel data; 1 μM ATP
Method: (§1) The degree of inhibition of a panel of kinases is determined using the in vitro HotSpot kinase assay (purified enzymes, ^33P-ATP, an appropriate substrate and 1 μM ATP).

[2] = biological target: T1, ITK (Homo sapiens, UniProt Q08881); assay: Inhibition of a panel of kinases, in vitro HotSpot kinase assay: ITK; details: D-compounds panel data; 1 μM ATP
T1 sequence (Q08881 1-620): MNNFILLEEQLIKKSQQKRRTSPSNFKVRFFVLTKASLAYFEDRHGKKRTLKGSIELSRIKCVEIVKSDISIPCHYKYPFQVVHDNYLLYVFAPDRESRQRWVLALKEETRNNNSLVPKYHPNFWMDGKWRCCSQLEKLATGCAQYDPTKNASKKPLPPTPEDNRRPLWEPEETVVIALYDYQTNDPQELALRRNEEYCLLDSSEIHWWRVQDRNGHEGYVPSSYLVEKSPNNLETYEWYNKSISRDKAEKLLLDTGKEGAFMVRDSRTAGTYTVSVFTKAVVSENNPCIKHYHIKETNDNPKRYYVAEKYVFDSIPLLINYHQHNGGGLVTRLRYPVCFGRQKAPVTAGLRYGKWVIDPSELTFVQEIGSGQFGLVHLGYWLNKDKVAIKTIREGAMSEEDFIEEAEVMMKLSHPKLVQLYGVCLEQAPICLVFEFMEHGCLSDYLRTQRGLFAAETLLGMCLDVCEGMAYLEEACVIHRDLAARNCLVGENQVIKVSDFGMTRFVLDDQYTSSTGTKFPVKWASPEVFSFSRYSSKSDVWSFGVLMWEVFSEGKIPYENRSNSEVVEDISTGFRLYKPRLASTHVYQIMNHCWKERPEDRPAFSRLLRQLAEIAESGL
Method: as §1

[3] = biological target: T2, TEC (Homo sapiens, UniProt P42680); assay: Inhibition of a panel of kinases, in vitro HotSpot kinase assay: TEC; details: D-compounds panel data; 1 μM ATP
T2 sequence (P42680 1-631): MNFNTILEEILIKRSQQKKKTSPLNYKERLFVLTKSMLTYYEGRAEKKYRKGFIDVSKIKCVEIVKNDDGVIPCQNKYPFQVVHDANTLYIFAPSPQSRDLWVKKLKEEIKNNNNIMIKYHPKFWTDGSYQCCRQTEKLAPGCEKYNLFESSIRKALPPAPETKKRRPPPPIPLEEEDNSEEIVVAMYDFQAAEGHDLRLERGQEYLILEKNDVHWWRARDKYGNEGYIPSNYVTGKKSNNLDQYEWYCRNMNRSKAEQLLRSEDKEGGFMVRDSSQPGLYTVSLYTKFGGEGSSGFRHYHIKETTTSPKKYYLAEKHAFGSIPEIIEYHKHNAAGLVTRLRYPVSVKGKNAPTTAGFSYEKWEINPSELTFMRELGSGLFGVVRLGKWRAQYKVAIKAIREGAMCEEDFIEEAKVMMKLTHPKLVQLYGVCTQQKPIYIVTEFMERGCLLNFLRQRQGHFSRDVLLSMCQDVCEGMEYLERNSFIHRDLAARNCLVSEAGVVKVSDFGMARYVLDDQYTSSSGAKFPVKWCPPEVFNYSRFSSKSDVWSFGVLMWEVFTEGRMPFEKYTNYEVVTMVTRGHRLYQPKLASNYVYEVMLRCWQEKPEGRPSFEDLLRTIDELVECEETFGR
Method: as §1

[4] = biological target: SRC (Homo sapiens, UniProt P12931); assay: Inhibition of a panel of kinases, in vitro HotSpot kinase assay: SRC; details: D-compounds panel data; 1 μM ATP
Chain of SRC (P12931 whole entry): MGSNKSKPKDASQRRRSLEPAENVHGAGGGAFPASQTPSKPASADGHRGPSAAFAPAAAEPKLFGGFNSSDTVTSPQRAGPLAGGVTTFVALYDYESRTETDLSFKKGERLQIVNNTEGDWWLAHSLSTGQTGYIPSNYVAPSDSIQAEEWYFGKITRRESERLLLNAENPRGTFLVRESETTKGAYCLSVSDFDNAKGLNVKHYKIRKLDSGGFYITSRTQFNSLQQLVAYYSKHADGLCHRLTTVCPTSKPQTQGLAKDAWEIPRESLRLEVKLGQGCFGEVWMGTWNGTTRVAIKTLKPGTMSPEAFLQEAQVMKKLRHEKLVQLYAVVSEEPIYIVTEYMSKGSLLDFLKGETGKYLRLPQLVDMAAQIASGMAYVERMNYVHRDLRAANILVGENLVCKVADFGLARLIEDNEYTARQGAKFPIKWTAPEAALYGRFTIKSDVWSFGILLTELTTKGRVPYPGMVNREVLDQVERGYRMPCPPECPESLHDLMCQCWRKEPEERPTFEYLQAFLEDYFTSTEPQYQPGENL
Method: as §1

[5] = biological target: T3, JAK3 (Homo sapiens, UniProt P52333); assay: Inhibition of a panel of kinases, in vitro HotSpot kinase assay: JAK3; details: D-compounds panel data; 1 μM ATP; read-out: IC50 JAK3
T3 sequence (P52333 1-1124): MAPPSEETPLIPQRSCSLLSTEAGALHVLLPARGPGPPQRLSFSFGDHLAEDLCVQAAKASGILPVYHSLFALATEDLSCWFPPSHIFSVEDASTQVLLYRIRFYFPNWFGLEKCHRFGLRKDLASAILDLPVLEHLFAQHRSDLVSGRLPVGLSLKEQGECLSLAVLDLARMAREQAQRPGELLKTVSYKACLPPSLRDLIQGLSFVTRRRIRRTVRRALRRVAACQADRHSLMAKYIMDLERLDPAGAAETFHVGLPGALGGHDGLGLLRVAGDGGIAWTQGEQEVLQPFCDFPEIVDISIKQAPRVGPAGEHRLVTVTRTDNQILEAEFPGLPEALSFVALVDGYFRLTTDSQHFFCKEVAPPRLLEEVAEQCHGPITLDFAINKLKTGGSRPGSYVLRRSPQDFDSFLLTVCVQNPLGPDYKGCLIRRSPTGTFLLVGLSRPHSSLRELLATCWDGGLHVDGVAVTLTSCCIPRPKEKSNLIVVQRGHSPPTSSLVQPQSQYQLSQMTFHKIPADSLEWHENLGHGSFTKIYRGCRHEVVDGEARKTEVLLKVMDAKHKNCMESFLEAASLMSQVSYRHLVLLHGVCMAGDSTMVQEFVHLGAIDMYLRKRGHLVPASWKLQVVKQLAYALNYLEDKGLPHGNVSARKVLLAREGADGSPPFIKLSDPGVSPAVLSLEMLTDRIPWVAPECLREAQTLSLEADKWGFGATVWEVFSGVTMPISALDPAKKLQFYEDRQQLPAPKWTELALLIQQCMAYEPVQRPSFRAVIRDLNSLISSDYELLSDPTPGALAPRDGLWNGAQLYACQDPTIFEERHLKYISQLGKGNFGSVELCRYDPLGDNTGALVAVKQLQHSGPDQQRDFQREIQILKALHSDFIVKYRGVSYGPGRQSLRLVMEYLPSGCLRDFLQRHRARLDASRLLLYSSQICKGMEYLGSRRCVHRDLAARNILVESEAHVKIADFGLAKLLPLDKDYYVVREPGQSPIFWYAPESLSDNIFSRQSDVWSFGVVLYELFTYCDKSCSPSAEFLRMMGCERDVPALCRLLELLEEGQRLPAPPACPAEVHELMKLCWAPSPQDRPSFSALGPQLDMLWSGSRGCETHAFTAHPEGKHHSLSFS

Chain of EGFR (P00533 25-1210): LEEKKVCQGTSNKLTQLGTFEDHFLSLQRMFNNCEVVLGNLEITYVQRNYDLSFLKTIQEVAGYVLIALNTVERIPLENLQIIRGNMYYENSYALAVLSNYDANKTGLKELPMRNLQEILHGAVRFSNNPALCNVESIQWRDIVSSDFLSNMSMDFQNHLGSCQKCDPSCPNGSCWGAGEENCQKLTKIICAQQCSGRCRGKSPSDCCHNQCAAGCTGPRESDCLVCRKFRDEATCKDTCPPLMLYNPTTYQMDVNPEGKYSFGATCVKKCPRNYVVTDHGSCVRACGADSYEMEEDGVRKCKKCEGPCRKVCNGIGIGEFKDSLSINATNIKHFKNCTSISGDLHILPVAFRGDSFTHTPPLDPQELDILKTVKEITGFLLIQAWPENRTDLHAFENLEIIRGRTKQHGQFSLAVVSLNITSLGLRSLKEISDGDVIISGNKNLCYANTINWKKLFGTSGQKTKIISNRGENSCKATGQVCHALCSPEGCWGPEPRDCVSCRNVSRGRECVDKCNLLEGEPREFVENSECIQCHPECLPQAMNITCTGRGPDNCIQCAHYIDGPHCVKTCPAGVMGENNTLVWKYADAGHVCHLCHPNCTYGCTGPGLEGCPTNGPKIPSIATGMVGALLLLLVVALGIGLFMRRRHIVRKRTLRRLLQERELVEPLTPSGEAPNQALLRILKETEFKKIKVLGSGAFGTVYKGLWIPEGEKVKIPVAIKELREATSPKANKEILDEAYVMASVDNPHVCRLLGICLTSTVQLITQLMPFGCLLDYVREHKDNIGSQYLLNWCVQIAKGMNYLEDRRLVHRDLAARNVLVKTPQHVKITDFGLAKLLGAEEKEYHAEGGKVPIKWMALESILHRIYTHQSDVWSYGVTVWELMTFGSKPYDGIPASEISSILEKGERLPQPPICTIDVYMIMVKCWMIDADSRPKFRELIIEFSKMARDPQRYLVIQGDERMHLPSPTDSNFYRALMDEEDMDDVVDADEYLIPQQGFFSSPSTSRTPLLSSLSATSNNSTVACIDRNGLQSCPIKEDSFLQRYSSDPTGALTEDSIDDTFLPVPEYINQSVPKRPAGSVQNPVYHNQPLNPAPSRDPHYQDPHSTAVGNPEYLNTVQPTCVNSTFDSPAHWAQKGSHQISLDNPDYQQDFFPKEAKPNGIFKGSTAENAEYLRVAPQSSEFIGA

| SMILES | IC50 [1] [µM] | IC50 [2] [µM] | IC50 [3] [µM] | IC50 [4] [µM] | IC50 [5] [µM] |
| --- | --- | --- | --- | --- | --- |
| C[C@@H]1[C@H](NC(=O)c2cc(C(C)(C)C)on2)CCCN1c1cnc(C(N)=O)c(Nc2cnn(C)c2)n1 [Example D-247, 5-[(2R,3R)-3-(5-tert-butyl-1,2-oxazole-3-amido)-2-methylpiperidin-1-yl]-3-[(1-methyl-1H-pyrazol-4-yl)amino]pyrazine-2-carboxamide] | 1 to 10 | 0.1 to 1 | 0.01 to 0.1 | 0.1 to 1 | 1 to 10 |
| C[C@@H]1[C@H](NC(=O)c2cc(C3CC3)n[nH]2)CCCN1c1cnc(C(N)=O)c(Nc2cnn(C)c2)n1 [Example D-252, 5-[(2R,3R)-3-(3-cyclopropyl-1H-pyrazole-5-amido)-2-methylpiperidin-1-yl]-3-[(1-methyl-1H-pyrazol-4-yl)amino]pyrazine-2-carboxamide] | 0.1 to 1 | 0.01 to 0.1 | ≤ 0.01 | 0.01 to 0.1 | 0.1 to 1 |
| C[C@@H]1[C@H](NC(=O)c2cc(C3CC3)n(C)n2)CCCN1c1cnc(C(N)=O)c(Nc2cnn(C)c2)n1 [Example D-253, 5-[(2R,3R)-3-(5-cyclopropyl-1-methyl-1H-pyrazole-3-amido)-2-methylpiperidin-1-yl]-3-[(1-methyl-1H-pyrazol-4-yl)amino]pyrazine-2-carboxamide] | 0.1 to 1 | 0.1 to 1 | ≤ 0.01 | 0.01 to 0.1 | 0.1 to 1 |
| C[C@@H]1[C@H](NC(=O)c2ccc3c(cnn3C)c2)CCCN1c1cnc(C(N)=O)c(Nc2cnn(C)c2)n1 [Example D-254, N-[(2R,3R)-1-{5-carbamoyl-6-[(1-methyl-1H-pyrazol-4-yl)amino]pyrazin-2-yl}-2-methylpiperidin-3-yl]-1-methyl-1H-indazole-5-carboxamide] | 1 to 10 | 0.1 to 1 | ≤ 0.01 | 0.01 to 0.1 | 1 to 10 |
| CC(C)n1nnc2cc(C(=O)N[C@@H]3CCCN(c4cnc(C(N)=O)c(Nc5cnn(C)c5)n4)[C@@H]3C)ccc21 [Example D-255, N-[(2R,3R)-1-{5-carbamoyl-6-[(1-methyl-i H-pyrazol-4-yl)amino]pyrazin-2-yl}-2-methylpiperidin-3-yl]-1-(propan-2-yl)-1H-1,2,3-benzotriazole-5-carboxamide] | 1 to 10 | 0.1 to 1 | ≤ 0.01 | 0.01 to 0.1 | 0.1 to 1 |
| C[C@@H]1[C@H](NC(=O)c2coc(C3CC3)n2)CCCN1c1cnc(C(N)=O)c(Nc2cnn(C)c2)n1 [Example D-257, 5-[(2R,3R)-3-(2-cyclopropyl-1,3-oxazole-4-amido)-2-methylpiperidin-1-yl]-3-[(1-methyl-1H-pyrazol-4-yl)amino]pyrazine-2-carboxamide] | 0.1 to 1 | 0.1 to 1 | ≤ 0.01 | 0.01 to 0.1 | 0.1 to 1 |
| C[C@@H]1[C@H](NC(=O)c2ccc3cnn(C)c3c2)CCCN1c1cnc(C(N)=O)c(Nc2cnn(C)c2)n1 [Example D-259, N-[(2R,3R)-1-{5-carbamoyl-6-[(1-methyl-1H-pyrazol-4-yl)amino]pyrazin-2-yl}-2-methylpiperidin-3-yl]-1-methyl-1H-indazole-6-carboxamide] | 1 to 10 | 0.1 to 1 | ≤ 0.01 | 0.01 to 0.1 | 1 to 10 |
| C[C@@H]1[C@H](NC(=O)c2ccc(C3(CO)CC3)cc2)CCCN1c1cnc(C(N)=O)c(Nc2cnn(C)c2)n1 [Example D-260, 5-[(2R,3R)-3-{4-[1-(hydroxymethyl)cyclopropyl]benzamido}-2-methylpiperidin-1-yl]-3-[(1-methyl-1H-pyrazol-4-yl)amino]pyrazine-2-carboxamide] | 1 to 10 | 0.1 to 1 | ≤ 0.01 | 0.01 to 0.1 | 1 to 10 |

Further lines, results first:

| IC50 [1] [µM] | IC50 [2] [µM] | IC50 [3] [µM] | IC50 [4] [µM] | IC50 [5] [µM] | SMILES |
| --- | --- | --- | --- | --- | --- |
| 1 to 10 | 0.1 to 1 | ≤ 0.01 | 0.01 to 0.1 | 1 to 10 | Cc1cc2cc(C(=O)N[C@@H]3CCCN(c4cnc(C(N)=O)c(Nc5cnn(C)c5)n4)[C@@H]3C)ccc2o1 [Example D-246, 3-[(1-methyl-1H-pyrazol-4-yl)amino]-5-[(2R,3R)-2-methyl-3-(2-methyl-1-benzofuran-5-amido)piperidin-1-yl]pyrazine-2-carboxamide] |
| 0.1 to 1 | 0.1 to 1 | ≤ 0.01 | 0.01 to 0.1 | 0.1 to 1 | COCCN(C)c1ccc(C(=O)N[C@@H]2CCCN(c3cnc(C(N)=O)c(Nc4cnn(C)c4)n3)[C@@H]2C)cc1 [Example D-248, 5-[(2R,3R)-3-{4-[(2-methoxyethyl)(methyl)amino]benzamido}-2-methylpiperidin-1-yl]-3-[(1-methyl-1H-pyrazol-4-yl)amino]pyrazine-2-carboxamide] |
| 1 to 10 | 0.1 to 1 | ≤ 0.01 | 0.01 to 0.1 | 1 to 10 | C[C@@H]1[C@H](NC(=O)c2ccc(C(C)(C)F)cc2)CCCN1c1cnc(C(N)=O)c(Nc2cnn(C)c2)n1 [Example D-251, 5-[(2R,3R)-3-[4-(2-fluoropropan-2-yl)benzamido]-2-methylpiperidin-1-yl]-3-[(1-methyl-1H-pyrazol-4-yl)amino]pyrazine-2-carboxamide] |
| 1 to 10 | 0.1 to 1 | ≤ 0.01 | 0.01 to 0.1 | 1 to 10 | C[C@@H]1[C@H](NC(=O)c2ccc3c(c2)CCC(C)(C)O3)CCCN1c1cnc(C(N)=O)c(Nc2cnn(C)c2)n1 [Example D-258, 5-[(2R,3R)-3-(2,2-dimethyl-3,4-dihydro-2H-1-benzopyran-6-amido)-2-methylpiperidin-1-yl]-3-[(1-methyl-1H-pyrazol-4-yl)amino]pyrazine-2-carboxamide] |
| 0.1 to 1 | 0.1 to 1 | ≤ 0.01 | 0.01 to 0.1 | 1 to 10 | Cc1nc2cc(C(=O)N[C@@H]3CCCN(c4cnc(C(N)=O)c(Nc5cnn(C)c5)n4)[C@@H]3C)ccc2[nH]1 [Example D-261, N-[(2R,3R)-1-{5-carbamoyl-6-[(1-methyl-1H-pyrazol-4-yl)amino]pyrazin-2-yl}-2-methylpiperidin-3-yl]-2-methyl-1H-1,3-benzodiazole-5-carboxamide] |
